Legend:
[1] = system: pentylentetrazole (PTZ)-induced convulsion; assay: Anti-convulsant effect, pentylentetrazole (PTZ) test; assay type: in vivo; details: 10 mg/kg intraperitoneally, PTZ 80 mg/kg subcutaneously; for mortality rate / Induction percentage of convulsion: (animals/total); for mortality rate: negative control 70(17/23); for Induction percentage of convulsion: negative control 100(23/23); for Initiation time of convulsion: negative control 5.0 ± 0.7; for Duration of convulsion: negative control 46.7 ± 3.3
Protocol: An experiment was performed by the method of Ali et al. (Ali, A. et al. 2006, Pharmacological Reports, 58: 242-245). A 10 mg/kg dose of compound was intraperitoneally administered to identify the anti-convulsant effect and the effect was observed (Table 8). Researching the process of activity was performed by the Anti-epileptic Drug Development Program (ADD) of NIH during development of the anti-convulsant drug. One of the assessed items of anti-convulsant activity in the first step of this program is the pentylentetrazole (PTZ) test. […] After 10 mg/kg of the testing drug was administered, assessment was performed by estimating the initiation time of convulsion, duration until convulsion completely disappeared and mortality rate. It was assessed as having an anti-convulsant effect when a single episode of clonic spasm was not shown over 5 seconds on at least one of the 4 laboratory animals after PTZ administration.

[2] = system: superoxide dismutase (SOD); assay: Increase of superoxide dismutase (SOD) activity in mouse brain cells; assay type: cell-based; details: 100 μg/ml
Protocol: ROS inhibitory effect of compounds was represented to the dose suppressing 50% of production of reactive oxygen compared to control. […] The activity of superoxide dismutase (SOD) was measured by using a kit acquired in Sigma.

[3] = system: mixed culture of nerve cells-glial cells; assay: Protecting effect on NMDA-induced nerve cell death (LDH release); assay type: cell-based, ICR mouse; details: 100 μM NMDA, LDH release after 24 hours
Protocol: Isolation and culture of nerve cells were performed by Choi's method (Choi, D. W. 1985, Neurosci. Lett., 58: 293-297). That is, the cortex was isolated in fetus ICR mouse that was 14 days pregnant, and then single cells were obtained from the tissue using pipette. The cells were aliquoted into 2×10^5/well density in a 24-well plate (Falcon) in which glial cells of cerebral cortex had been cultured in an incubator maintained at 37° C. with 5% CO2 for over 3 weeks. The culture medium was supplemented with MEM (minimum essential medium, Sigma), 2 mM glutamine, 21 mM glucose, 26.5 mM bicarbonate, 10% fetal bovine serum (FBS). In 3-5 days after aliquot, 10 μM Ara-C (cytosine arabinoside) was treated to suppress proliferation of neuroglia. And it was treated with 100 μM NMDA and 1 μg/mL or 2 μg/mL of each sample (compound) to induce the death of nerve cells due to excitable toxicity for 20 minutes, in 12-15 days after aliquot. Because of nerve cell death, lactate dehydrogenase (LDH) accumulated in proportion to the number of dead cells. In 24 hours after drug treatment, the amount of dehydrogenase (LDH) released to outside of cells was measured by using an […] measurement kit (CytoTox 96, Promega). After the reaction was completed, the change of absorbance depending on the amount of LDH was measured by using a microplate spectrophotometer.

[4] = system: thoracic aorta of rats; assay: Relaxing effect on thoracic aorta contracted by phenylephrine (organ bath); parameters: species or system rats of SD species; details: Rattus norvegicus; 67 μg/mL; phenylephrine 0.5 μM; mean n = 3; read-out: Relaxation percentage
From the text: After male rats of SD species (250-300 g) were anesthetized by inhalation of ether, their thoracic aortas were extracted and put into a Krebs buffer (mM; NaCl 118, NaHCO3 27.3, KCl 4.8, MgSO4 1.2, KH2PO4 1.0, CaCl2 1.25, glucose 11.1). 2 mm of aortic ring was made under dissecting microscope and cultured in an organ bath to measure the tension of blood vessels. The organ bath was filled with Krebs buffer and saturated with 95% O2, 5% CO2 to maintain dissolved oxygen and physiological pH. Changing of tension was measured by a tension meter (Hugo-sachs, model K30) and recorded by physiological recorder (Coulbourn polygraph). The length of the blood vessels was increased step by step to make 1.0 g of basal tension for 90 minutes. The equilibrated blood vessel was contracted by phenylephrine (0.5 μM). When the contraction furrow reached equilibrium, compounds were added, followed by observation of relaxation response.

| Compound | mortality rate [1] | Induction percentage of convulsion [1] | Initiation time of convulsion [1] [min] | Duration of convulsion [1] [min] | Increase of SOD activity, compared to control [2] | Inhibitory effect of cell death by NMDA-induced excitable neurotoxicity ([3]; 1 μg/ml compound) [%] | inhibition at 67 µg/mL [4] [%] | Inhibitory effect of cell death by NMDA-induced excitable neurotoxicity ([3]; 2 μg/ml compound) [%] |
| --- | --- | --- | --- | --- | --- | --- | --- | --- |
| CC(C)(C)OC(=O)N(CCCCNCCCn1c(=O)[nH]c2ccccc2c1=O)CCCn1c(=O)[nH]c2ccccc2c1=O [Compound 11, [3-(2,4-dioxo-1,4-dihydro-2H-quinazolin-3-yl)propyl]-{4-[3-(2,4-dioxo-1,4-dihydro-2H-quinazolin-3-yl)propylamino]butyl}carbamic Acid tert-butyl ester] | 17(1/6) % | 100(6/6) % | 10.1 ± 4.9 | 44.9 ± 5.8 | 2.3 ± 3.4 | 15.0 | 10.9 |  |
| CC(C)(C)OC(=O)N(CCCCN(CCCn1c(=O)[nH]c2ccccc2c1=O)C(=O)OC(C)(C)C)CCCn1c(=O)[nH]c2ccccc2c1=O [Compound 17, (4-{tert-butoxycarbonyl-[3-(2,4-dioxo-1,4-dihydro-2H-quinazolin-3-yl)propyl]amino}butyl)-[3-(2,4-dioxo-1,4-dihydro-2H-quinazolin-3-yl)propyl]carbamic acid tert-butyl ester] |  |  |  |  | 0.3 ± 0.0 | 21.0 | 51.7 | 10.7 |
| CC(=O)N(CCCCN(CCCn1c(=O)[nH]c2ccccc2c1=O)C(C)=O)CCCNC(=O)c1ccc(O)cc1 [Compound 21, N-{3-[acetyl-(4-{acetyl-[3-(2,4-dioxo-1,4-dihydro-2H-quinazolin-3-yl)propyl]amino}butyl)amino]propyl}-4-hydroxybenzamide] | 0(0/6) % | 67(4/6) % | 22.2 ± 11.9 | 6.7 ± 3.1 | −0.3 ± 3.7 | 19.6 | 2.6 | 16.6 |
| CCOC(=O)N(CCCCN(CCCn1c(=O)[nH]c2ccccc2c1=O)C(=O)OCC)CCCn1c(=O)[nH]c2ccccc2c1=O [Compound 16, [3-(2,4-dioxo-1,4-dihydro-2H-quinazolin-3-yl)propyl]-(4-{[3-(2,4-dioxo-1,4-dihydro-2H-quinazolin-3-yl)propyl]ethoxycarbonylamino}butyl)carbamic Acid ethyl ester] | 0(0/6) % | 100(6/6) % | 7.6 ± 1.7 | 6.4 ± 2.3 | 7.5 ± 2.3 | 18.1 |  |  |
| 3-[3-(4-{N-[3-(2,4-dioxo-1,4-dihydro-2H-quinazolin-3-yl)propyl]-N-benzylamino}butyl)-N-benzylamino]propyl-1H-quinazoline-2,4-dione [Compound 15] | 83(5/6) % | 83(5/6) % | 25.7 ± 7.2 | 34.3 ± 7.2 | 1.3 ± 3.1 | 22.4 |  | 22.3 |
| O=C(N(CCCCNCCCn1c(=O)[nH]c2ccccc2c1=O)CCCn1c(=O)[nH]c2ccccc2c1=O)C(F)(F)F [Compound 36, N-[3-(2,4-dioxo-1,4-dihydro-2H-quinazolin-3-yl)propyl]-N-{4-[3-(2,4-dioxo-1,4-dihydro-2H-quinazolin-3-yl)propylamino]butyl}-2,2,2-trifluoroacetamide] | 33(2/6) % | 100(6/6) % | 8.9 ± 2.3 | 25.1 ± 9.7 | 4.9 ± 1.2 | 32.2 |  | 18.4 |

Source: US8404696B2, “Quinazoline-2,4-dione derivative, and medical compositions for the prophylaxis and treatment of cranial nerve disease containing the same” (Shin Poong Pharmaceutical Co., Ltd., priority 2008, dated 2013)
